Article PMC9487510, “A Novel Oral GyrB/ParE Dual Binding Inhibitor Effective against Multidrug-Resistant Neisseria gonorrhoeae and Other High-Threat Pathogens” (Antimicrobial Agents and Chemotherapy, 2022)
≈ marks a conversion by molar mass, not a printed value. Where two headings read alike, the source gives them in different places.

Test system: MRSA
Experiment: MIC, in vitro susceptibility testing (CLSI)
Format: cell-based, Staphylococcus aureus
Details: for MIC: Staphylococcus aureus, MRSA

CNc1cc(F)cc2c1[nH]c1nc(Oc3cnc(C)nc3)nc(N3CCC4(CC3)CO[C@@H](CO)C4)c12 [JSF-2414]
MIC range (101 strains (Van: 8)): 0.002 to 0.125 µg/mL | MIC (101 clinical MRSA strains, read-out: modal MIC): 0.031 µg/mL (≈ 0.0628 µM) | MIC (ciprofloxacin-resistant strains (MIC >4 μg/mL), n = 30, read-out: modal MIC): 0.062 µg/mL (≈ 0.126 µM) | MIC (discussion, read-out: MIC): 0.031 µg/mL (≈ 0.0628 µM) | MIC (strain 2 11 41, read-out: MIC): 0.062 µg/mL (≈ 0.126 µM) | MIC (strain 2 11 42, read-out: MIC): 0.016 µg/mL (≈ 0.0324 µM) | MIC (strain 2 11 43, read-out: MIC): 0.062 µg/mL (≈ 0.126 µM) | MIC (strain 2 11 56, read-out: MIC): 0.004 µg/mL (≈ 0.0081 µM) | MIC (strain 2 11 57, read-out: MIC): 0.125 µg/mL (≈ 0.253 µM) | MIC (strain 2 11 58, read-out: MIC): 0.002 µg/mL (≈ 0.00405 µM) | MIC (strain 2 11 60, read-out: MIC): 0.004 µg/mL (≈ 0.0081 µM) | MIC (strain 2 11 61, read-out: MIC): 0.004 µg/mL (≈ 0.0081 µM) | MIC (strain 2 11 65, read-out: MIC): 0.062 µg/mL (≈ 0.126 µM) | MIC (strain 2 11 66, read-out: MIC): 0.062 µg/mL (≈ 0.126 µM) | MIC (strain 2 11 67, read-out: MIC): 0.004 µg/mL (≈ 0.0081 µM) | MIC (strain 2 11 68, read-out: MIC): 0.004 µg/mL (≈ 0.0081 µM) | MIC (strain 2 11 71, read-out: MIC): 0.062 µg/mL (≈ 0.126 µM) | MIC (strain 2 11 74, read-out: MIC): 0.062 µg/mL (≈ 0.126 µM) | MIC (strain 2 11 75, read-out: MIC): 0.008 µg/mL (≈ 0.0162 µM) | MIC (strain 2 11 79, read-out: MIC): 0.062 µg/mL (≈ 0.126 µM) | MIC (strain 2 11 80, read-out: MIC): 0.002 µg/mL (≈ 0.00405 µM) | MIC (strain 2 11 83, read-out: MIC): 0.062 µg/mL (≈ 0.126 µM) | MIC (strain 2 11 84, read-out: MIC): 0.031 µg/mL (≈ 0.0628 µM) | MIC (strain 2 11 86, read-out: MIC): 0.002 µg/mL (≈ 0.00405 µM) | MIC (strain 2 11 87, read-out: MIC): 0.062 µg/mL (≈ 0.126 µM) | MIC (strain 2 11 90, read-out: MIC): 0.125 µg/mL (≈ 0.253 µM) | MIC (strain 2 11 91, read-out: MIC): 0.016 µg/mL (≈ 0.0324 µM) | MIC (strain 2 11 99, read-out: MIC): 0.008 µg/mL (≈ 0.0162 µM) | MIC (strain 2 12 13, read-out: MIC): 0.125 µg/mL (≈ 0.253 µM) | MIC (strain 2 12 76, read-out: MIC): 0.031 µg/mL (≈ 0.0628 µM) | MIC (strain 2 12 78, read-out: MIC): 0.016 µg/mL (≈ 0.0324 µM) | MIC (strain 2 12 88, read-out: MIC): 0.004 µg/mL (≈ 0.0081 µM) | MIC (strain 2 13 19, read-out: MIC): 0.016 µg/mL (≈ 0.0324 µM) | MIC (strain 2 13 23, read-out: MIC): 0.125 µg/mL (≈ 0.253 µM) | MIC (strain 2 13 26, read-out: MIC): 0.004 µg/mL (≈ 0.0081 µM) | MIC (strain 2 13 27, read-out: MIC): 0.016 µg/mL (≈ 0.0324 µM) | MIC (strain 2 13 29, read-out: MIC): 0.002 µg/mL (≈ 0.00405 µM) | MIC (strain 2 13 32, read-out: MIC): 0.004 µg/mL (≈ 0.0081 µM) | MIC (strain 2 13 33, read-out: MIC): 0.016 µg/mL (≈ 0.0324 µM) | MIC (strain 2 13 41, read-out: MIC): 0.125 µg/mL (≈ 0.253 µM) | MIC (strain 2 13 43, read-out: MIC): 0.062 µg/mL (≈ 0.126 µM) | MIC (strain 2 13 47, read-out: MIC): 0.125 µg/mL (≈ 0.253 µM) | MIC (strain 2 13 48, read-out: MIC): 0.002 µg/mL (≈ 0.00405 µM) | MIC (strain 2 13 52, read-out: MIC): 0.002 µg/mL (≈ 0.00405 µM) | MIC (strain 2 13 53, read-out: MIC): 0.062 µg/mL (≈ 0.126 µM) | MIC (strain 2 13 54, read-out: MIC): 0.062 µg/mL (≈ 0.126 µM) | MIC (strain 2 13 55, read-out: MIC): 0.062 µg/mL (≈ 0.126 µM) | MIC (strain 2 13 56, read-out: MIC): 0.062 µg/mL (≈ 0.126 µM) | MIC (strain 2 13 57, read-out: MIC): 0.016 µg/mL (≈ 0.0324 µM) | MIC (strain 2 13 58, read-out: MIC): 0.031 µg/mL (≈ 0.0628 µM) | MIC (strain 2 35 90, read-out: MIC): 0.016 µg/mL (≈ 0.0324 µM) | MIC (strain 2 36 04, read-out: MIC): 0.031 µg/mL (≈ 0.0628 µM) | MIC (strain 2 36 17, read-out: MIC): 0.031 µg/mL (≈ 0.0628 µM) | MIC (strain 2 36 31, read-out: MIC): 0.031 µg/mL (≈ 0.0628 µM) | MIC (strain 2 66 36, read-out: MIC): 0.016 µg/mL (≈ 0.0324 µM) | MIC (strain 2 66 41, read-out: MIC): 0.016 µg/mL (≈ 0.0324 µM) | MIC (strain 2 78 41, read-out: MIC): 0.062 µg/mL (≈ 0.126 µM) | MIC (strain 2 78 62, read-out: MIC): 0.031 µg/mL (≈ 0.0628 µM) | MIC (strain 2 78 66, read-out: MIC): 0.031 µg/mL (≈ 0.0628 µM) | MIC (strain 2 78 96, read-out: MIC): 0.031 µg/mL (≈ 0.0628 µM)
